From publication PMC10528385 (Antiviral research, 2023) come the findings set out here.

Test [1] has as its target NA of A/Bethesda/956/2006 A(H3N2), NA-R292K (Influenza A virus, UniProt F1KL32, R292K). In kind it is biochemical. Particulars: read-out: Susceptibility to NAIs, mean IC50 ± SD.
For test [2], the target named is NA of A/Texas/12/2007 A(H3N2), NA-E119V (Influenza A virus, UniProt D1FVK3, I119V). Nature of the test: biochemical.

SMILES strings stand for the structures.

Regarding `CC(=O)N[C@H]1[C@H]([C@H](O)[C@H](O)CO)OC(C(=O)O)=C[C@@H]1N=C(N)N` [Zanamivir, zanamivir], the IC50 (as a rule, the concentration that inhibits the measured activity by half) is 10.6 ± 1.4 nM in test [1] and 1.3 nM in test [2].
